The values below come from patent US7183276B2, “Azole compounds” (Takeda Pharmaceutical Company Limited, priority 2002, dated 2007).

For the compound `O=C(CCc1oc(-n2cnc3ccccc32)nc1-c1ccc(Cl)cc1)Nc1ccccc1CO` [Example 109, 3-[2-(1H-benzimidazol-1-yl)-4-(4-chlorophenyl)-5-oxazolyl]-N-[2-(hydroxymethyl)phenyl]propionamide], the melting point lay in the range of 159 to 160 °C.
In the case of `COc1cc(OC)c(CNC(=O)CCc2oc(-n3cnc4ccccc43)nc2-c2ccc(Cl)cc2)c(OC)c1` [Example 161, 3-[2-(1H-benzimidazol-1-yl)-4-(4-chlorophenyl)-5-oxazolyl]-N-(2,4,6-trimethoxybenzyl)propionamide], the melting point fell in the range of 206 to 208 °C.
`CCOP(=O)(Cc1ccc(NC(=O)CCc2sc(NC(=S)NC(=O)c3ccccc3)nc2-c2ccc(Cl)cc2)cc1)OCC` displayed a melting point of 208 to 209 °C.
Consider `COc1ccc(CNC(=O)CCc2oc(-n3cnc4ccccc43)nc2-c2ccc(Cl)cc2)cc1` [Example 145, 3-[2-(1H-benzimidazol-1-yl)-4-(4-chlorophenyl)-5-oxazolyl]-N-(4-methoxybenzyl)propionamide], for which the melting point is 210 to 212 °C.
As for `NC(=O)CCc1oc(-c2ccc(F)cc2)nc1-c1ccc(Cl)cc1` [Example 23, 3-[4-(4-chlorophenyl)-2-(4-fluorophenyl)-5-oxazolyl]propionamide], the melting point fell in the range of 212 to 213 °C.
`O=C(CCc1oc(-n2cnc3ccccc32)nc1-c1ccccc1)N1CCC(O)CC1` [Example 247, 1-{3-[2-(1H-benzoimidazol-1-yl)-4-phenyl-5-oxazolyl]propanoyl}-4-piperidinol] showed a melting point of 157 to 158 °C.
With `CCCc1nc(-c2ccc(Cl)cc2)c(CCC(=O)N2CCN(CC3CCN(C)CC3)CC2)o1.Cl.Cl`, the melting point turned out to be 218 °C.
`Cc1ccc(CNC(=O)CCc2sc(-n3cnc4ccccc43)nc2-c2ccc(Cl)cc2)cc1` [Example 203, 3-[2-(1H-benzimidazol-1-yl)-4-(4-chlorophenyl)-5-thiazolyl]-N-(4-methylbenzyl)propionamide] came in with a melting point of 191 to 192 °C.
Compound `COc1ccc(-c2nc(-n3cnc4ccccc43)oc2CCC(=O)N2CCN(CC3CCCN(C)C3)CC2)cc1` (centres unmarked) [Example 252, 1-{3-[2-(1H-benzoimidazol-1-yl)-4-(4-methoxyphenyl)-5-oxazolyl]propanoyl}-4-[(1-methylpiperidin-3-yl)methyl]piperazine] came in with a melting point of 151 to 152 °C.
`O=C(CCc1oc(-n2cnc3ccccc32)nc1-c1ccc(Cl)cc1)NCC(=O)Nc1ccccc1` [Example 149, 2-({3-[2-(1H-benzimidazol-1-yl)-4-(4-chlorophenyl)-5-oxazolyl]propanoyl}amino)-N-phenylacetamide] showed a melting point of 250 to 251 °C.
Take `CCOP(=O)(OCC)C(O)c1ccc(NC(=O)CCc2oc(-n3cnc4ccccc43)nc2-c2ccc(Cl)cc2)cc1` (centres unmarked): the melting point lay within 171 to 172 °C.
`CCOP(=O)(Cc1ccc(NC(=O)CCc2oc(-n3nnc4ccccc43)nc2-c2ccc(Cl)cc2)cc1)OCC` showed a melting point of 91 to 92 °C.
For `CCOP(=O)(Cc1ccc(NC(=O)CCc2sc(NC(=O)Nc3ccccc3)nc2-c2ccc(Cl)cc2)cc1)OCC` the value was 175 to 176 °C; for `COc1ccccc1NC(=O)Cc1ccc(NC(=O)CCc2oc(-n3cnc4ccccc43)nc2-c2ccc(Cl)cc2)cc1` [Example 139, 2-[4-(N-{3-[2-(1H-benzimidazol-1-yl)-4-(4-chlorophenyl)-5-oxazolyl]propanoyl}amino)phenyl]-N-(2-methoxyphenyl)acetamide], 258 to 259 °C.
`NC(=O)CCc1oc(-c2ccc3ccccc3c2)nc1-c1ccc(Cl)cc1` [Example 24, 3-[4-(4-chlorophenyl)-2-(2-naphthyl)-5-oxazolyl]propionamide]: the melting point lay in the range of 206 to 207 °C.
Compound `CN1CCC(N(C)C(=O)CCc2oc(-n3cnc4ccccc43)nc2-c2ccc(Cl)cc2)CC1` [Example 193, 3-[2-(1H-benzimidazol-1-yl)-4-(4-chlorophenyl)-5-oxazolyl]-N-methyl-N-(1-methyl-4-piperidinyl)propionamide] came in with a melting point of 133 to 134 °C.
With `CCOP(=O)(Cc1ccc(NC(=O)CCCc2oc(N3CCN(c4ccccn4)CC3)nc2-c2ccc(Cl)cc2)cc1)OCC`, the melting point lay within 114 to 116 °C.
In turn, `CCOP(=O)(Cc1ccc(NC(=O)CCc2sc(NC(=O)c3ccccc3)nc2-c2ccc(Cl)cc2)cc1)OCC` displayed a melting point of 171 to 172 °C.
Next, `CCOP(=O)(Cc1ccc(NC(=O)CCc2oc(-n3ccnc3C)nc2-c2ccc(Cl)cc2)cc1)OCC`: 158 to 159 °C; `Nc1nc(-c2ccc(Cl)cc2)c(CCC(=O)N2CCS(=O)(=O)CC2)s1` [Example 227B, 4-{3-[2-amino-4-(4-chlorophenyl)-5-thiazolyl]propanoyl}thiomorpholine-1,1-dioxide]: 220 to 222 °C; `O=C(CCc1oc(-n2cnc3ccccc32)nc1-c1ccc(Cl)cc1)N1CCC(CO)CC1` [Example 305, (1-{3-[2-(1H-benzoimidazol-1-yl)-4-(4-chlorophenyl)-5-oxazolyl]propanoyl}-4-piperidinyl)methanol]: 101 to 102 °C.
Consider `CCOP(=O)(OCC)C(F)c1ccc(NC(=O)CCc2oc(-n3cnc4ccccc43)nc2-c2ccc(Cl)cc2)cc1` (centres unmarked), for which the melting point fell in the range of 152 to 155 °C.
On to `CNS(=O)(=O)Cc1ccc(NC(=O)CCc2oc(-n3ccnc3)nc2-c2ccc(Cl)cc2)cc1` [Example 44, 3-[2-(1H-imidazol-1-yl)-4-(4-chlorophenyl)-5-oxazolyl]-N-(4-{[(methylamino)sulfonyl]methyl}phenyl)propionamide], for which the melting point was in the range of 224 to 225 °C.
Next, `CCOP(=O)(OCC)c1ccc(NC(=O)CCCc2oc(-n3cnc4ccccc43)nc2-c2ccc(Cl)cc2)cc1`: 162 to 163 °C.
In the case of `O=C(CCc1oc(-n2cnc3ccccc32)nc1-c1ccc(Cl)cc1)NCc1ccccn1` [Example 154, 3-[2-(1H-benzimidazol-1-yl)-4-(4-chlorophenyl)-5-oxazolyl]-N-(2-pyridinylmethyl)propionamide], the melting point was in the range of 157 to 158 °C.
For `CS(=O)(=O)CCNC(=O)CCc1oc(-n2cnc3ccccc32)nc1-c1ccc(Cl)cc1` [Example 302, 3-[2-(1H-benzoimidazol-1-yl)-4-(4-chlorophenyl)-5-oxazolyl]-N-[2-(methylsulfonyl)ethyl]propanamide] the value was 194 to 195 °C.
The compound `CCOP(=O)(Cc1ccc(NC(=O)CCc2sc(NC(=O)NC)nc2-c2ccc(Cl)cc2)cc1)OCC` yielded a melting point of 206 to 207 °C.
Turning to `COc1cc(CNC(=O)CCc2oc(-n3cnc4ccccc43)nc2-c2ccc(Cl)cc2)cc(OC)c1` [Example 180, 3-[2-(1H-benzimidazol-1-yl)-4-(4-chlorophenyl)-5-oxazolyl]-N-(3,5-dimethoxybenzyl)propionamide], the melting point is 198 to 200 °C.
In turn, `O=C(CCc1oc(-n2cnc3ccccc32)nc1-c1ccc(Cl)cc1)N1CCSC1` [Example 259, 3-{3-[2-(1H-benzoimidazol-1-yl)-4-(4-chlorophenyl)-5-oxazolyl]propanoyl}thiazolidine] returned a melting point of 125 to 126 °C.
Compound `CCOP(=O)(Cc1ccc(NC(=O)/C=C/c2sc(-n3cnc4ccccc43)nc2C)cc1)OCC` gave a melting point of 150 to 151 °C.
Next, `O=C(CCc1oc(-n2cnc3ccccc32)nc1-c1ccc(Cl)cc1)NCc1ccc(Br)cc1` [Example 172, 3-[2-(1H-benzimidazol-1-yl)-4-(4-chlorophenyl)-5-oxazolyl]-N-(4-bromobenzyl)propionamide]: 205 to 206 °C; `N#CCc1ccccc1NC(=O)CCc1oc(-n2cnc3ccccc32)nc1-c1ccc(Cl)cc1` [Example 111, 3-[2-(1H-benzimidazol-1-yl)-4-(4-chlorophenyl)-5-oxazolyl]-N-[2-(cyanomethyl)phenyl]propionamide]: 235 to 236 °C.
The compound `CCOP(=O)(Cc1ccc(NC(=O)Cc2sc(-n3cnc4ccccc43)nc2-c2ccc(Cl)cc2)cc1)OCC` came in with a melting point of 154 to 155 °C.
Regarding `N#Cc1ccccc1NC(=O)CCc1oc(-n2cnc3ccccc32)nc1-c1ccc(Cl)cc1` [Example 113, 3-[2-(1H-benzimidazol-1-yl)-4-(4-chlorophenyl)-5-oxazolyl]-N-(2-cyanophenyl)propionamide], the melting point was 186 to 187 °C.
Consider `N#CCc1cccc(NC(=O)CCc2oc(-n3cnc4ccccc43)nc2-c2ccc(Cl)cc2)c1` [Example 110, 3-[2-(1H-benzimidazol-1-yl)-4-(4-chlorophenyl)-5-oxazolyl]-N-[3-(cyanomethyl)phenyl]propionamide], for which the melting point is 188 to 189 °C.
Next, `O=C(CCc1oc(-n2cnc3ccccc32)nc1-c1ccc(Cl)cc1)N1CCN(c2ccccn2)CC1` [Example 93, 1-{3-[2-(1H-benzimidazol-1-yl)-4-(4-chlorophenyl)-5-oxazolyl]propanoyl}-4-(2-pyridinyl)piperazine]: 174 to 176 °C; `O=C(CCc1oc(-n2cnc3ccccc32)nc1-c1ccc(Cl)cc1)NCc1ccc(F)cc1Cl` [Example 168, 3-[2-(1H-benzimidazol-1-yl)-4-(4-chlorophenyl)-5-oxazolyl]-N-(2-chloro-4-fluorobenzyl)propionamide]: 196 to 198 °C.
Compound `O=C(CCc1oc(-n2cnc3ccccc32)nc1-c1ccc(F)cc1)N1CCC(O)CC1` [Example 258, 1-{3-[2-(1H-benzoimidazol-1-yl)-4-(4-fluorophenyl)-5-oxazolyl]propanoyl}-4-piperidinol] gave a melting point of 158 to 159 °C.
In turn, `N#CCc1ccc(NC(=O)CCc2oc(-c3ccccc3)nc2-c2ccc(Cl)cc2)cc1` [Example 105, 3-[4-(4-chlorophenyl)-2-phenyl-5-oxazolyl]-N-[4-(cyanomethyl)phenyl]propionamide] came in with a melting point of 212 to 214 °C.
Next, `NC(=O)CCc1oc(Sc2ncccn2)nc1-c1ccc(Cl)cc1` [Example 33, 3-[4-(4-chlorophenyl)-2-(2-pyrimidinylsulfanyl)-5-oxazolyl]propionamide]: 194 to 195 °C.
`CCOP(=O)(Cc1ccc(NC(=O)CCc2oc(-c3ccc(OC)cc3)nc2-c2ccc(Cl)cc2)cc1)OCC` came in with a melting point of 141 to 142 °C.

Broadly, the melting point is the temperature, or range, at which the solid turns liquid.
